pIC50: −log10 of the molar value. Some results are limits rather than exact numbers.

The term pIC50 denotes the negative decadic logarithm of the IC50, by convention in mol/L. Higher therefore signals a small IC50.

In the experiment the test system is TEAD responsive promoter element (8XGTIIC-Luciferase; YAP1-TEAD and TAZ-TEAD activity). Nature of the experiment: TEAD-Luciferase reporter assay. In kind it is cell-based. Conditions: Homo sapiens; luciferase activity in tumor cell lines with stable integration of the 8XGTIIC-Luciferase construct; 10 doses between 1 and 10000 nM, 48 hrs. An excerpt:
TEAD-Luciferase Reporter Assay
Luciferase-based gene reporter assays were used, employing the TEAD responsive promoter element that are stably integrated to different human tumor cell lines in order to monitor YAP1-TEAD and TAZ-TEAD activity and to study YAP1/TAZ-TEAD activity modulation by small molecule compounds. Luciferase-based gene reporter assays employing the GAPDH promoter element and stably integrated to different human tumor cell lines are used as counter screen control cell lines.
Tumor cell lines with stable integration of the 8XGTIIC-Luciferase construct (Dupont et al., Nature 2011) or the GAPDH-Luciferase control plasmid, are seeded in culture medium in 96-well plates at a density of 8000 cells/well. Following an overnight incubation in a 37° C., 5% CO2 growth chamber, cells are treated with compounds described above at 10 doses ranging between 1 and 10000 nM for 48 hrs. After compound incubation, cells are lysed with Bright-Glo Luciferase Assay System (Promega E2620) and luciferase activity is measured using a luminescent plate reader.
The inhibitory activity of the compounds with respect to luciferase activity is given by the concentration which inhibits 50% of activity of non-treated cells. IC50s are determined with a nonlinear regression model on XLfit software analysis (IDBS, UK).

As to `C=CC(=O)Nc1ccc2c(ccn2-c2cccc(C(F)(F)F)c2)c1` [Example 43, N-(1-(3-(trifluoromethyl)phenyl)-1H-indol-5-yl)acrylamide], the pIC50 was 7.44.

`C=CC(=O)Nc1ccc2c(ccn2-c2ccc(C(F)(F)F)cc2)c1` [Example 44, N-(1-(4-(trifluoromethyl)phenyl)-1H-indol-5-yl)acrylamide] showed a pIC50 of 8.10.

For `C=CC(=O)Nc1ccc2c(ccn2-c2ccc(C(F)(F)F)nc2)c1` [Example 45, N-(1-(6-(trifluoromethyl)pyridin-3-yl)-1H-indol-5-yl)acrylamide], the pIC50 is 6.97.

`C=CC(=O)Nc1ccc2c(ccn2-c2ccc(C(F)(F)F)cn2)c1` [Example 46, N-(1-(5-(trifluoromethyl)pyridin-2-yl)-1H-indol-5-yl)acrylamide] gave a pIC50 of under 5.00.

`C=CC(=O)Nc1ccc2c(ccn2-c2cccnc2)c1` [Example 47, N-(1-(pyridin-3-yl)-1H-indol-5-yl)acrylamide] showed a pIC50 of under 5.00.

As for `C=CC(=O)Nc1ccc2c(ccn2-c2ccc(F)cc2)c1` [Example 48, N-(1-(4-fluorophenyl)-1H-indol-5-yl)acrylamide], the negative-log IC50 (pIC50) was under 5.00.

Compound `C=CC(=O)Nc1ccc2c(ccn2-c2ccc(F)c(F)c2)c1` [Example 49, N-(1-(3,4-difluorophenyl)-1H-indol-5-yl)acrylamide] showed a pIC50 of under 5.00.

`C=CC(=O)Nc1ccc2c(ccn2-c2cccc(S(C)(=O)=O)c2)c1` [Example 50, N-(1-(3-(methylsulfonyl)phenyl)-1H-indol-5-yl)acrylamide] showed a pIC50 of 5.33.

As to `C=CC(=O)Nc1ccc2c(ccn2-c2ccc(C#N)cc2)c1` [Example 51, N-(1-(4-cyanophenyl)-1H-indol-5-yl)acrylamide], the pIC50 is 6.50. This pIC50 lies 1.17 log units higher than the previous one.

As for `C=CC(=O)Nc1ccc2c(ccn2Cc2cc(F)cc(F)c2)c1` [Example 52, N-(1-(3,5-difluorobenzyl)-1H-indol-5-yl)acrylamide], the negative-log IC50 (pIC50) was 7.39.

Compound `C=CC(=O)Nc1ccc2c(ccn2Cc2ccc(F)c(F)c2)c1` [Example 53, N-(1-(3,4-difluorobenzyl)-1H-indol-5-yl)acrylamide] gave a negative logarithm of the IC50 (pIC50) of 7.48.

`C=CC(=O)Nc1ccc2c(ccn2Cc2cccc(C#N)c2)c1` [Example 54, N-(1-(3-cyanobenzyl)-1H-indol-5-yl)acrylamide] showed a pIC50 of 6.41.

As for `C=CC(=O)Nc1ccc2c(ccn2Cc2ccc(C(F)(F)F)o2)c1` [Example 55, N-(1-((5-(trifluoromethyl)furan-2-yl)methyl)-1H-indol-5-yl)acrylamide], the pIC50 is 6.73.

The compound `C=CC(=O)Nc1ccc2c(ccn2Cc2cscn2)c1` [Example 56, N-(1-(thiazol-4-ylmethyl)-1H-indol-5-yl)acrylamide] showed a pIC50 of at most 5.00.

On to `C=CC(=O)Nc1ccc2c(ccn2Cc2csc(C(F)(F)F)n2)c1` [Example 57, N-(1-((2-(trifluoromethyl)thiazol-4-yl)methyl)-1H-indol-5-yl)acrylamide], for which the pIC50 was 6.72.

On to `C=CC(=O)Nc1cccc2ccn(Cc3cccc(C(F)(F)F)c3)c12` [Example 58, N-(1-(3-(trifluoromethyl)benzyl)-1H-indol-7-yl)acrylamide], for which the pIC50 is 5.70.

Consider `C=CC(=O)Nc1ccc2c(ccn2Cc2cccc(S(C)(=O)=O)c2)c1` [Example 59, N-(1-(3-(methylsulfonyl)benzyl)-1H-indol-5-yl)acrylamide], for which the pIC50 was 5.54.

`C=CC(=O)Nc1ccc2c(c1)c(COC)cn2Cc1cccc(C(F)(F)F)c1` [Example 60, N-(3-(methoxymethyl)-1-(3-(trifluoromethyl)benzyl)-1H-indol-5-yl)acrylamide] had a pIC50 of 7.06. Against the preceding compound, the pIC50 is 1.52 log units higher.

Consider `C=CC(=O)Nc1ccc2c(c1)c(C(=O)OC)cn2Cc1cccc(C(F)(F)F)c1` [Example 61, methyl 5-acrylamido-1-(3-(trifluoromethyl)benzyl)-1H-indole-3-carboxylate], for which the pIC50 is 7.39.

Compound `C=CC(=O)Nc1ccc2ccn(-c3cccc(C(F)(F)F)c3)c2c1` [Example 62, N-(1-(3-(trifluoromethyl)phenyl)-1H-indol-6-yl)acrylamide] showed a pIC50 of 7.19.

Compound `C=CC(=O)Nc1ccc2c(ccn2-c2ccc(S(F)(F)(F)(F)F)cc2)c1` [Example 63, N-(1-(4-(pentafluoro-λ6-sulfanyl)phenyl)-1H-indol-5-yl)acrylamide] showed a negative-log IC50 (pIC50) of 7.54.

With `C=CC(=O)Nc1ccc2ccn(-c3ccc(C(F)(F)F)cc3)c2c1` [Example 64, N-(1-(4-(trifluoromethyl)phenyl)-1H-indol-6-yl)acrylamide], the pIC50 is 6.97.

Compound `C=CC(=O)Nc1ccc2c(ccn2-c2ccc(C(F)(F)F)cc2C)c1` [Example 65, N-(1-(2-methyl-4-(trifluoromethyl)phenyl)-1H-indol-5-yl)acrylamide] gave a pIC50 of 7.23.

Compound `C=CC(=O)Nc1ccc2c(ccn2-c2cc(F)cc(F)c2)c1` [Example 66, N-(1-(3,5-difluorophenyl)-1H-indol-5-yl)acrylamide] gave a pIC50 of 5.73.

Take `C=CC(=O)Nc1ccc2c(ccn2-c2cncc(F)c2)c1` [Example 67, N-(1-(5-fluoropyridin-3-yl)-1H-indol-5-yl)acrylamide]: the pIC50 was 5.07.

As for `C=CC(=O)Nc1ccc2c(ccn2-c2ccnc(C(F)(F)F)c2)c1` [Example 68, N-(1-(2-(trifluoromethyl)pyridin-4-yl)-1H-indol-5-yl)acrylamide], the negative logarithm of the IC50 (pIC50) is 5.96.

`C=CC(=O)Nc1ccc2c(c1)c(C)cn2-c1ccc(C(F)(F)F)cc1` [Example 69, N-(3-methyl-1-(4-(trifluoromethyl)phenyl)-1H-indol-5-yl)acrylamide] had a pIC50 of 8.05.

Turning to `C=CC(=O)Nc1ccc2c(c1)cc(C)n2-c1ccc(C(F)(F)F)cc1` [Example 70, N-(2-methyl-1-(4-(trifluoromethyl)phenyl)-1H-indol-5-yl)acrylamide], the pIC50 was 7.92.

`C=CC(=O)N(C)c1ccc2c(c1)cc(C)n2-c1ccc(C(F)(F)F)cc1` [Example 71, N-methyl-N-[2-methyl-1-[4-(trifluoromethyl)phenyl]indol-5-yl]acrylamide] gave a pIC50 of 7.62.

The compound `C=CC(=O)Nc1ccc2c(c1)c(COC)cn2-c1ccc(C(F)(F)F)cc1` [Example 72, N-(3-(methoxymethyl)-1-(4-(trifluoromethyl)phenyl)-1H-indol-5-yl)acrylamide] had a pIC50 of 7.82.

In the case of `C=CC(=O)Nc1cc2ccn(-c3ccc(C(F)(F)F)cc3)c2cc1F` [Example 73, N-(6-fluoro-1-(4-(trifluoromethyl)phenyl)-1H-indol-5-yl)acrylamide], the negative logarithm of the IC50 (pIC50) was 6.61. Compared with the last compound, the pIC50 is 1.21 log units lower.

Take `C=CC(=O)N(C)c1ccc2c(ccn2-c2ccc(C(F)(F)F)cc2)c1` [Example 74, N-methyl-N-(1-(4-(trifluoromethyl)phenyl)-1H-indol-5-yl)acrylamide]: the pIC50 is 6.97.

For `C/C=C/C(=O)Nc1ccc2c(ccn2-c2ccc(C(F)(F)F)cc2)c1` [Example 75, (E)-N-(1-(4-(trifluoromethyl)phenyl)-1H-indol-5-yl)but-2-enamide], the pIC50 is 6.34.

On to `CN(C)C/C=C/C(=O)Nc1ccc2c(ccn2-c2ccc(C(F)(F)F)cc2)c1` [Example 76, (E)-4-(dimethylamino)-N-(1-(4-(trifluoromethyl)phenyl)-1H-indol-5-yl)but-2-enamide], for which the pIC50 is 5.42. Against the preceding compound, the pIC50 is 0.92 log units lower.

`C=CC(=O)Nc1cc2ccn(-c3ccc(C(F)(F)F)cc3)c2cc1Cl` [Example 77, N-(6-chloro-1-(4-(trifluoromethyl)phenyl)-1H-indol-5-yl)acrylamide] gave a pIC50 of 6.27.

Take `C=CC(=O)Nc1cc2ccn(Cc3cccc(C(F)(F)F)c3)c2cc1Cl` [Example 78, N-(6-chloro-1-(3-(trifluoromethyl)benzyl)-1H-indol-5-yl)acrylamide]: the pIC50 was 6.85.

Take `C=CC(=O)Nc1cc(Cl)c2c(ccn2Cc2cccc(C(F)(F)F)c2)c1` [Example 79, N-(7-chloro-1-(3-(trifluoromethyl)benzyl)-1H-indol-5-yl)acrylamide]: the negative-log IC50 (pIC50) is 7.07.

With `C=CC(=O)Nc1cc2ccn(Cc3cccc(C(F)(F)F)c3)c2cc1F` [Example 80, N-(6-fluoro-1-(3-(trifluoromethyl)benzyl)-1H-indol-5-yl)acrylamide], the pIC50 is 7.74. Compared with the last compound, the pIC50 is 0.67 log units higher.

Take `C=CC(=O)Nc1cc(Cl)c2c(ccn2-c2ccc(C(F)(F)F)cc2)c1` [Example 81, N-(7-chloro-1-(4-(trifluoromethyl)phenyl)-1H-indol-5-yl)acrylamide]: the pIC50 was 7.17.

`C=CC(=O)Nc1ccc2c(c1)c(CO)cn2-c1ccc(C(F)(F)F)cc1` [Example 82, N-(3-(hydroxymethyl)-1-(4-(trifluoromethyl)phenyl)-1H-indol-5-yl)acrylamide] gave a pIC50 of 6.80. Against the preceding compound, the pIC50 is 0.37 log units lower.

Compound `C=CC(=O)Nc1ccc2c(c1)c(C(N)=O)cn2Cc1cccc(C(F)(F)F)c1` [Example 83, 5-Acrylamido-1-(3-(trifluoromethyl)benzyl)-1H-indole-3-carboxamide] showed a pIC50 of 5.75.

For the compound `C=CC(=O)Nc1ccc2c(c1)c(C(N)=O)cn2-c1ccc(C(F)(F)F)cc1` [Example 84, 5-Acrylamido-1-(4-(trifluoromethyl)phenyl)-1H-indole-3-carboxamide], the negative-log IC50 (pIC50) is 6.21.

Values taken from US12692230B2, “(1 h-indol-5-yl)acrylamide derivatives as inhibitors of TEAD proteins and the hippo-YAP1/TAZ signaling cascade for the treatment of cancer” (Sanofi, priority 2020, dated 2026).
